Laboratory results as given in patent US20240408162A1, “Use of Extract from Morus alba L. in the Preparation of a Medicament for Preventing and/or Treating a Hepatobiliary Disease” (BEIJING WEHAND-BIO PHARMACEUTICAL CO., LTD, priority 2022, published 2024).

Experiments:
HepG2 hepatocytes = assay: Palmitic acid-treated HepG2 hepatocytes (non-alcoholic fatty liver model), triglyceride and cholesterol by kit; format: cell-based; details: PA-treated HepG2, 24 h, DNJ 20 μg/ml
Protocol: HepG2 hepatocytes were cultured overnight in a 6-well plate at a seeding density of 2×10^5 cells/ml after digestion. HepG2 cells were treated with palmitic acid (PA) to create a non-alcoholic fatty liver model, with 0.25% BSA treatment as a control. Cells in the model groups were separately administrated with extracts from Morus alba L. (designed to be 25 μg/ml (containing 17 μg/ml DNJ) based on total alkaloids (SZ-A)) obtained from Example 1, 20 μg/ml DNJ, 5 μg/ml FAG, or 5 μg/ml DAB, and cultured for 24 h. Cells were lysed with the lysis solution containing Triton x-100 after removal of the supernatant, and the triglyceride (TG) and cholesterol (TC) in hepatocytes were detected using a kit.

3T3-L1 adipocytes = assay: Secretion of adiponectin in 3T3-L1 adipocytes (ELISA of supernatant); format: cell-based; details: DNJ 80, 40, 20 μg/ml; summary statement
Protocol: Reduced adiponectin levels were independent risk factors for NAFLD and liver dysfunction. Adiponectin might activate liver AMPK, inhibit lipid synthesis, and promote lipid oxidation. Adiponectin might also affect inflammation of hepatic macrophages and fibrosis of hepatic stellate cells. 3T3-L1 pre-adipocytes were cultured in the medium containing calf serum and seeded into a 6-well plate at a density of 2×10^4 cells/ml. […] The supernatant was collected after culture for 8 days, and the concentration of adiponectin in the supernatant was detected using an ELISA kit.

Compound: OC[C@H]1NC[C@H](O)[C@@H](O)[C@@H]1O [DNJ, 1-deoxynojirimycin]
- triglyceride (TG) level in hepatocytes (HepG2 hepatocytes; SZ-A 25 μg/ml (based on total alkaloids)): reduce the triglyceride level
- cholesterol (TC) level in hepatocytes (HepG2 hepatocytes; SZ-A 25 μg/ml): reduced the cholesterol level
- concentration of adiponectin (3T3-L1 adipocytes): increase the concentration of adiponectin
